Data reported in US5118681A (priority 1989, dated 1992).

What was measured:
A.n = assay: Minimum Inhibitory Concentration Test, alternate (Table 4), A.n; type: cell-based, Aspergillus niger; conditions: TSB, 72 hours
Method in brief: (§1)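 Compound in acetone was diluted into TSB and serially diluted 1:1 from 250 ppm down to 0.8 ppm, in duplicate. Plates were inoculated with diluted 24 h culture and incubated 3 days at 30° C; MIC recorded as lowest concentration with no growth.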

Piricularia oryzae = assay: whole plant or invertebrate; type: in vivo; conditions: in vivo
[1] = tested on: Pellicularia filamentosa (f. sp. sasiki); assay: whole plant or invertebrate; type: in vivo; conditions: in vivo
[2] = tested on: Pseudoperonospora cubensis; assay: whole plant or invertebrate; type: in vivo; conditions: in vivo
Candida albicans (C.alb) = assay: Minimum Inhibitory Concentration Test, alternate (Table 4), C.alb; type: cell-based; conditions: TSB, 72 hours
Protocol: (§2) A 125 μl aliquot of 10,000 ppm test compound in acetone was added to 4.88 ml of TSB to provide a 250 ppm solution. From this solution, 100 μL was transferred to the first row of two microtiter plate columns. Both replicates and five additional compounds were all serially diluted 1:1 to a final concentration of 0.8 ppm in TSB.
(§3) Inoculation was accomplished by diluting a 24 hr Ps fl culture, four mls per 36 mls of phosphate buffer solution. A Dynatech autoinoculator was used to transfer 1.5 μl of this cell suspension to the microtiter plates. The plates were incubated at 30° C. for 3 days before the lowest concentration at which no growth occurs was recorded in the database. The SOK data and MIC test data on Ps.fl, Ps.ae, E.c, and S.a. bacteria and Candida albicans (C.alb), A.n and A.p fungi are listed in Table 4.

E.c = assay: Minimum Inhibitory Concentration Test, alternate (Table 4), E.c; type: cell-based, Escherichia coli; conditions: TSB, 72 hours
Protocol: as §2, §3

[3] = tested on: Erysiphe graminis (f. sp. tritici); assay: whole plant or invertebrate; type: in vivo; conditions: in vivo
Pseudomonas fluorescens [4] = assay: Minimum Inhibitory Concentration Test, alternate (Table 4), Ps.fl; type: cell-based; conditions: TSB, 72 hours, 30° C
Method in brief: as §1

Phytophthora infestans = assay: whole plant or invertebrate; type: in vivo; conditions: 200 ppm application rate
Pseudomonas fluorescens [5] = assay: Speed of Kill Test, alternate, 24 h, synthetic hard water (Table 4); type: cell-based; conditions: Ps.fl in synthetic hard water, 100 ppm
S.a = assay: Minimum Inhibitory Concentration Test, alternate (Table 4), S.a; type: cell-based, Staphylococcus aureus; conditions: TSB, 72 hours
Protocol: as §2, §3

Ps.ae = assay: Minimum Inhibitory Concentration Test, alternate (Table 4), Ps.ae; type: cell-based, Pseudomonas aerugenosa; conditions: TSB, 72 hours

Substance: N-n-octyl-cis-3-{2-[ethyl-N-(2-thiophenylmethyl)malonamido]thio}acrylamide [Example 28]
- MIC A.n (A.n): 16-31 ppm
- % control RB (Piricularia oryzae): 25%
- % control RSB [1]: 0%
- % control CDM [2]: 96%
- MIC C.alb (Candida albicans (C.alb)): 63 ppm
- MIC E.c (E.c): 500 ppm
- % control WPM [3]: 0%
- MIC Ps.fl (Pseudomonas fluorescens [4]): 500 ppm
- % control TLB (Phytophthora infestans): 50%
- SOK (Pseudomonas fluorescens [5]): > 100 ppm
- MIC S.a (S.a): 500 ppm
- MIC Ps.ae (Ps.ae): 500 ppm
